From US11034935B2, “Liver organoid, uses thereof and culture method for obtaining them” (Koninklijke Nederlandse Akademie van Wetenschappen, priority 2010, dated 2021)
Where two headings read alike, the source gives them in different places.

How the values were obtained:
[1] = system: human biliary-derived cultures; assay: Expansion of human biliary-derived liver cultures; assay type: cell-based; conditions: 500 uM added to expansion medium (ERFHNic and ENRWFHNic)
Wnt signalling = Wnt signalling reporter (LacZ) in liver of Axin2-LacZ mice; conditions: after injection
Lgr5 = conditions: Lgr5-LacZ knockin mice; for Lgr5 reporter expression in the liver: 0.8 ml/kg injection
liver organoid cultures = assay: Hepatocyte differentiation of liver organoid cultures by added compounds, RT-PCR of hepatocyte markers; conditions: titration, hepatocyte marker expression 7 days

Cc1cccc(-c2nn(C(=S)Nc3ccccc3)cc2-c2ccnc3ccccc23)n1 [A83-01, 3-(6-Methyl-2-pyridinyl)-N-phenyl-4-(4-quinolinyl)-1H-pyrazole-1-carbothioamide]
expansion of human biliary-derived cultures [1]: able to expand human biliary-derived cultures

ClC(Cl)(Cl)Cl [CC14, carbon tetrachloride]
Wnt signalling in the liver (Wnt signalling; listed as CCL4): Wnt signalling is activated
time of peak Lgr5 reporter expression after injury (Lgr5): 6.5 days
Lgr5 reporter expression in the liver (Lgr5): induces Lgr5 expression in the liver at sites of active regeneration
Lgr5 reporter expression in the liver (Lgr5; listed as CCL4): upregulation of Lgr5

C[C@H](NC(=O)Cc1cc(F)cc(F)c1)C(=O)N[C@H](C(=O)OC(C)(C)C)c1ccccc1 [DAPT]
maximal concentration efficiency (liver organoid cultures): 10 µM

B1: R-spondin1: Wnt agonist, secreted protein of the R-spondin family; Lgr5 ligand (protein, UniProt Q2MKA7 21-263, looked up)
R-spondin-1: SRGIKGKRQRRISAEGSQACAKGCELCSEVNGCLKCSPKLFILLERNDIRQVGVCLPSCPPGYFDARNPDMNKCIKCKIEHCEACFSHNFCTKCKEGLYLHKGRCYPACPEGSSAANGTMECSSPAQCEMSEWSPWGPCSKKQQLCGFRRGSEERTRRVLHAPVGDHAACSDTKETRRCTVRRVPCPEGQKRRKGGQGRRENANRNLARKESKEAGAGSRRRKGQQQQQQQGTVGPLTSAGPA
Wnt signalling in the liver (Wnt signalling): liver cells are responsive to Wnt stimulation
Wnt signalling in the liver (Wnt signalling; listed as R-spondin): upregulation of Wnt signalling expression in the liver ducts
